40 molecules from the Kinase Knowledgebase extract (Sharma et al. 2016) can be followed below.

The target of the test is MAPK14 (UniProt Q16539). Briefly: Inhibition of MAPK14 Kinase Activity.
Sequence of MAPK14 (Q16539 whole entry, looked up): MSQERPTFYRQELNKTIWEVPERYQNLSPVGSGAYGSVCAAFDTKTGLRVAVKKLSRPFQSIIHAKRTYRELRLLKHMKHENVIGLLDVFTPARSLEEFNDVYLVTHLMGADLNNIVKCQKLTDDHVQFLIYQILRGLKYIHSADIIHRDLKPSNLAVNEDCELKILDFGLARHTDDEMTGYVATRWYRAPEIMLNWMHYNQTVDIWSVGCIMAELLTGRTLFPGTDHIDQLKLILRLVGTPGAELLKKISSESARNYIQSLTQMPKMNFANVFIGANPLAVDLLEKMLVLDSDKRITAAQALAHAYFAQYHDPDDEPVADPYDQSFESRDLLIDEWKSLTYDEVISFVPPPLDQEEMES
As to `CC(C)(C)c1cc(NC(=O)Nc2ccc(OC3CCN(C(=O)c4c(F)cccc4F)CC3)cc2)[nH]n1`, the half-inhibitory concentration (IC50) was below 5 µM.
For `Cn1nc(C(C)(C)C)cc1NC(=O)Nc1cccc(OC2CCN(C(=O)OCc3ccccc3)CC2)c1`, the IC50 is below 5 µM.
Molecule `Cc1ccc(-n2nc(C(C)(C)C)cc2NC(=O)Nc2ccc(N3CCN(S(=O)(=O)C4CC4)CC3)cc2)cc1` yielded an IC50 below 5 µM.
With `Cn1nc(C(C)(C)C)cc1NC(=O)Nc1cc(F)cc(OC2CCN(C(=O)c3ccccc3)CC2)c1` the figure was below 5 µM; with `Cn1nc(C(C)(C)C)cc1NC(=O)Nc1ccc(CN2CCN(C(=O)c3ccc(F)cc3Cl)CC2)cc1`, below 5 µM; with `Cc1ccc(-n2nc(C(C)(C)C)cc2NC(=O)Nc2ccc(OC3CCN(C(=O)c4c(Cl)cccc4Cl)CC3)c3ccccc23)cc1`, below 5 µM.
`Cn1nc(C(C)(C)C)cc1NC(=O)Nc1cccc(OC2CCN(C(=O)c3ccc(F)cc3F)CC2)c1` registered an IC50 below 5 µM.
With `Cn1nc(C(C)(C)C)cc1NC(=O)Nc1cc(F)cc(OC2CCN(C(=O)c3c(Cl)cncc3Cl)CC2)c1` the figure was below 5 µM; with `Cn1nc(C(C)(C)C)cc1NC(=O)Nc1cc(F)cc(OC2CCN(C(=O)c3ccc4[nH]ccc4c3)CC2)c1`, below 5 µM; with `CCn1nc(C(C)(C)C)cc1NC(=O)Nc1ccc(CN2CCN(C(=O)c3ccc(F)cc3F)CC2)cc1F`, below 5 µM.
The value for `CC(C)n1nc(C(C)(C)C)cc1NC(=O)Nc1ccc(CN2CCN(C(=O)c3c(Cl)cccc3Cl)CC2)cc1` was below 5 µM.
As for `Cn1nc(C(C)(C)C)cc1NC(=O)Nc1cc(F)cc(OC2CCN(C(=O)c3c(F)cccc3F)CC2)c1`, the IC50 was below 5 µM.
The value for `Cn1nc(C(C)(C)C)cc1NC(=O)Nc1cccc(OC2CCN(C(=O)c3ccccc3Cl)CC2)c1` was below 5 µM; that for `CC(C)(C)c1cc(NC(=O)Nc2ccc(CN3CCN(C(=O)c4c(F)cccc4F)CC3)c(F)c2)n(C(C)(C)C)n1` was below 5 µM.
The value for `Cn1nc(C(C)(C)C)cc1NC(=O)Nc1ccc(OC2CCN(C(=O)c3ccc(Cl)s3)CC2)cc1` was below 5 µM; that for `Cn1nc(C(C)(C)C)cc1NC(=O)Nc1ccc(CN2CCN(C(=O)c3c(F)cccc3Cl)CC2)cc1` was below 5 µM; that for `COc1ccc(C(=O)N2CCC(Oc3cccc(NC(=O)Nc4cc(C(C)(C)C)nn4C)c3)CC2)c(OC)n1` was below 5 µM.
The value for `Cn1nc(C(C)(C)C)cc1NC(=O)Nc1ccc(OC2CCN(C(=O)c3ccncc3)CC2)cc1` was below 5 µM; that for `CC(C)(C)c1cc(NC(=O)Nc2ccc(OC3CCN(C(=O)c4c(Cl)cccc4Cl)CC3)cc2)[nH]n1` was below 5 µM; that for `Cc1ccc(-n2nc(C(C)(C)C)cc2NC(=O)Nc2ccc(N3CCN(C(=O)C(C)(C)C)CC3)cc2)cc1` was 0.091 µM.
In turn, `Cn1nc(C(C)(C)C)cc1NC(=O)Nc1ccc(OC2CCN(C(=O)c3ccccc3Cl)CC2)cc1` yielded an IC50 below 5 µM.
`Cn1nc(C(C)(C)C)cc1NC(=O)Nc1cccc(OC2CCN(C(=O)c3c(Cl)cccc3Cl)CC2)c1` showed an IC50 below 5 µM.
The molecule `Cn1nc(C(C)(C)C)cc1NC(=O)Nc1ccc(OC2CCN(C(=O)c3ccsc3)CC2)cc1` gave an IC50 below 5 µM.
With `Cn1nc(C(C)(C)C)cc1NC(=O)Nc1ccc(CN2CCN(C(=O)c3ccc(C(F)(F)F)cc3)CC2)cc1` the figure was below 5 µM.
With `Cc1ccc(-n2nc(C(C)(C)C)cc2NC(=O)Nc2ccc(N3CCN(C(=O)c4c(F)cccc4F)CC3)cc2)cc1` the figure was below 5 µM; with `CC(=O)N1CCN(Cc2ccc(NC(=O)Nc3cc(C(C)(C)C)nn3C)cc2)CC1`, below 5 µM; with `Cn1nc(C(C)(C)C)cc1NC(=O)Nc1ccc(CN2CCN(C(=O)c3c(F)cccc3F)CC2)cc1F`, below 5 µM.
As for `Cn1nc(C(C)(C)C)cc1NC(=O)Nc1cccc(OC2CCN(C(=O)c3c(F)cccc3Cl)CC2)c1`, the half-maximal inhibitory concentration (IC50) was below 5 µM.
`Cc1ccc(-n2nc(C(C)(C)C)cc2NC(=O)Nc2cc(F)cc(OC3CCN(C(=O)C4CC4)CC3)c2)cc1` registered an IC50 below 5 µM.
`Cn1nc(C(C)(C)C)cc1NC(=O)Nc1cc(OC2CCN(C(=O)c3ccccc3Cl)CC2)cc(C(F)(F)F)c1` came in with a half-inhibitory concentration (IC50) below 5 µM.
With `Cn1nc(C(C)(C)C)cc1NC(=O)Nc1cc(F)cc(OC2CCN(C(=O)C(Cl)(Cl)Cl)CC2)c1` the figure was below 5 µM; with `Cn1nc(C(C)(C)C)cc1NC(=O)Nc1cccc(OC2CCN(C(=O)c3ccccc3F)CC2)c1`, below 5 µM; with `Cn1nc(C(C)(C)C)cc1NC(=O)Nc1cc(F)cc(OC2CCN(C(=O)c3c[nH]c4ccccc34)CC2)c1`, below 5 µM.
With `Cc1ccc(OC2CCN(C(=O)c3ccccc3Cl)CC2)cc1NC(=O)Nc1cc(C(C)(C)C)nn1C` the figure was below 5 µM; with `Cn1nc(C(C)(C)C)cc1NC(=O)Nc1ccc(CN2CCN(C(=O)c3ccccc3)CC2)cc1`, below 5 µM; with `Cc1ccsc1C(=O)N1CCC(Oc2ccc(NC(=O)Nc3cc(C(C)(C)C)nn3C)cc2)CC1`, below 5 µM.
With `Cn1nc(C(C)(C)C)cc1NC(=O)Nc1cc(F)cc(OC2CCN(C(=O)c3cc4ccccc4[nH]3)CC2)c1` the figure was below 5 µM; with `Cn1nc(C(C)(C)C)cc1NC(=O)Nc1ccc(C(=O)N2CCN(Cc3ccncc3)CC2)cc1`, below 5 µM; with `Cc1ccc(-n2nc(C(C)(C)C)cc2NC(=O)Nc2ccc(N3CCN(C(=O)CC4CCCC4)CC3)cc2)cc1`, below 5 µM.
Take `Cn1nc(C(C)(C)C)cc1NC(=O)Nc1ccc(N2CCN(C(=O)c3c(F)cccc3F)CC2)cc1`: the 50% inhibitory concentration (IC50) is below 5 µM.
